Test results from patent US20240294551A1 (AMGEN INC., priority 2022, published 2024).
Counter-ions that a name gives are not always drawn. Like-named read-outs stand apart in the source and are kept apart here.

Experiments:
[1] = system: MIA PaCa-2 cells; assay: MIA PaCa-2 CTG Assay (CellTiter-Glo cell viability); format: cell-based, human; conditions: Mia PaCa-2, 72 h, second value of the cell, read-out: G12D/C/V Cell Proliferation CTG (72 h) Mia PaCa-2
How it was run: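 IC50 values come from a 4-parameter logistic fit of CellTiter-Glo luminescence, normalized to DMSO control, after 72 h compound exposure at 37° C, 5% CO2. Cells grew in RPMI 1640 plus 10% FBS and were seeded at 1.67E+04 cells/mL one night before dosing.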

[2] = system: AsPC-1 cells; assay: AsPC-1 CTG Assay (CellTiter-Glo cell viability); format: cell-based, human; conditions: AsPC-1, 72 h, first value of the cell, read-out: G12D/C/V Cell Proliferation CTG (72 h) AsPC-1
How it was run: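 IC50 values derive from 4-parameter logistic fits of CellTiter-Glo luminescence, expressed relative to DMSO. Compound dilution series were applied to overnight-seeded AsPC-1 or SW620 cells (RPMI 1640, 10% FBS) for 72 h at 37 °C, 5% CO2.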

[3] = molecular target: His-tagged KRAS G12D protein (Homo sapiens (Human), UniProt P01116, G12D); assay: KRAS G12D TR-FRET Assay; format: binding; conditions: read-out: KRAS G12D Binding IC50
Chain of His-tagged KRAS G12D protein (P01116 other isoform, or with tags, fused parts or gaps G12D): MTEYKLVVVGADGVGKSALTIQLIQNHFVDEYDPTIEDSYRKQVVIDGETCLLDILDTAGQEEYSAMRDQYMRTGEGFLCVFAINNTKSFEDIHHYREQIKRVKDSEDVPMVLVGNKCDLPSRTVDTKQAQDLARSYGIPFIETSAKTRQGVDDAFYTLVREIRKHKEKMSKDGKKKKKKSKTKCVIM
How it was run: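 Each incubation ran at room temperature: enzyme with compound for 30 minutes, peptide for one hour, and detection reagents (0.4 nM europium anti-6×His, 5 nM streptavidin-d2) for one hour more. Protein and peptide stocks were each diluted to 20 nM before addition.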

[4] = molecular target: GDP-bound KRAS protein (aa 1-169), containing both G12D and C118A amino acid substitutions (Homo sapiens (Human), UniProt P01116, C118A/G12D); assay: KRAS G12D Coupled Nucleotide Exchange Assay; format: biochemical; conditions: read-out: KRAS G12D Coupled Exchange IC50
Chain of GDP-bound KRAS protein (aa 1-169), containing both G12D and C118A amino acid substitutions (P01116 other isoform, or with tags, fused parts or gaps G12D/C118A): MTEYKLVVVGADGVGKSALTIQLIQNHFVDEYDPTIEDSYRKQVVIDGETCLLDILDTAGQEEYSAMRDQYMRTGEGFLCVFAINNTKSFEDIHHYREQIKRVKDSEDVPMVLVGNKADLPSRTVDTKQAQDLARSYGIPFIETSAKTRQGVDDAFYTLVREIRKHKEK

[5] = system: Phosphorylation of ERK1/2 in AsPC-1 cells; assay: Phospho-ERK1/2 MSD Assay; format: cell-based, human; conditions: read-out: 2 h p-ERK (AsPC-1 cells), IC50
How it was run: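 Read-out: MSD electrochemiluminescent detection of phosphorylated ERK1/2 in whole-cell lysates, fitted to a 4-parameter logistic curve for IC50. Prior to lysis, AsPC-1 cells (25,000 per well) received a 2 h compound dose-response at 37 °C.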

| SMILES | IC50 [1] [nM] | IC50 [2] [nM] | IC50 [3] [nM] | IC50 [4] [nM] | IC50 ([5]; 2 h) [nM] | IC50 ([1]; Homo sapiens) [nM] | IC50 ([2]; Homo sapiens, ASPC1, 72 h) [nM] | IC50 ([5]; Homo sapiens, ASPC1, 2 h) [nM] | IC50 ([2]; Homo sapiens, ASPC1) [nM] |
| --- | --- | --- | --- | --- | --- | --- | --- | --- | --- |
| O=C1COCCc2c(Cl)cc3[nH]ncc3c2-c2ncc3c(nc(OC[C@@]45CCCN4C[C@H](F)C5)nc3c2F)N2CC[C@H]3CCN1[C@H]3C2 [Example 270, (28S,32R)-18-chloro-33-fluoro-4-(((2R,7aS)-2-fluorotetrahydro-1H-pyrrolo[1,2-a]pyrrol-7a(5H)-yl)methoxy)-22-oxa-1,3,5,9,14,15,25-heptaazaheptacyclo[23.5.2.1~6, 10~.0~2,7~.0~11,19~.0~12,16~.0~28,32~]tritriaconta-2,4,6,8,10(33),11,13,16,18-nonaen-24-one] | 675 | 606 | 7 | 2 | 123 | – | – | – | – |
| Cc1cc2[nH]ncc2c2c1CCCC(F)C(=O)N[C@@H]1CCCCN(C1)c1nc(OC[C@@]34CCCN3C[C@H](F)C4)nc3c(F)c-2ncc13 (single isomer, unassigned) [Example 160] | – | – | 4 | 3 | 71.8 | 420 | 587 | – | – |
| Cc1cc2[nH]ncc2c2c1CCCOCC(=O)N1CC[C@@H]3CCN(C[C@@H]31)c1nc(OC[C@@]34CCCN3C[C@H](F)C4)nc3c(F)c-2ncc13 [Example 277, (29S,33R)-34-fluoro-4-(((2R,7aS)-2-fluorotetrahydro-1H-pyrrolo[1,2-a]pyrrol-7a(5H)-yl)methoxy)-18-methyl-23-oxa-1,3,5,9,14,15,26-heptaazaheptacyclo[24.5.2.1~6,10~.0~2,7~.0~11,19~.0~12,16~.0~29,33~]tetratriaconta-2,4,6,8,10(34),11,13,16,18-nonaen-25-one] | – | – | 3 | 2 | – | 60 | 88 | 11 | – |
| CN1CCC[C@H]1COc1nc2c3cnc(c(F)c3n1)-c1c(c(Cl)cc3[nH]ncc13)CCCOC(=O)O[C@]1(CF)COCCN2C1 [Example 338, (26S)-18-chloro-32-fluoro-26-(fluoromethyl)-4-(((2S)-1-methyl-2-pyrrolidinyl)methoxy)-23,25,28-trioxa-1,3,5,9,14,15-hexaazahexacyclo[24.4.1.1~6,10~.0~2,7~.0~11,19~.0~12,16~]dotriaconta-2,4,6,8,10(32),11,13,16,18-nonaen-24-one] | – | – | 7 | 2 | – | 35 | 268 | 41.5 | – |
| O=C1CC/C=C\c2c(Cl)cc3[nH]ncc3c2-c2ncc3c(nc(OC[C@@]45CCCN4C[C@H](F)C5)nc3c2F)N2CCCC(C2)O1 (stereo in doubt) [Example 35, (11Z,17S)-9-Chloro-30-fluoro-24-(((2R,7aS)-2-fluorotetrahydro-1H-pyrrolo[1,2-a]pyrrol-7a(5H)-yl)methoxy)-16-oxa-5,6,21,23,25,29-hexaazahexacyclo[24.3.1.1˜17,21˜.0˜2,10˜.0˜3,7˜.0˜22,27˜]hentriaconta-1(30),2,4,7,9,11,22,24,26,28-decaen-15-one bis(2,2,2-trifluoroacetate)] | – | – | 1 | 1 | – | 90 | – | 19 | 277 |
| O=C1OCCc2c(F)ccc3cc(O)cc(c23)-c2ncc3c(nc(OC[C@@]45CCCN4C[C@H](F)C5)nc3c2F)N2CCOC[C@H](C2)O1 [Example 361, (16S)-23,32-difluoro-8-(((2R,7aS)-2-fluorotetrahydro-1H-pyrrolo[1,2-a]pyrrol-7a(5H)-yl)methoxy)-28-hydroxy-14,17,19-trioxa-3,7,9,11-tetraazahexacyclo[20.7.1.1~2,6~.1~11,16~.0~5,10~.0~26,30~]dotriaconta-1(30),2(32),3,5,7,9,22,24,26,28-decaen-18-one] | – | – | 3 | 1 | – | 5 | 7 | 0.4 | – |
| Cc1cc2[nH]ncc2c2c1C/C=C\COC[C@@H]1CCCN(C1)c1nc(OC[C@@]34CCCN3C[C@H](F)C4)nc3c(F)c-2ncc13 [Example 131] | – | – | 6 | 3 | – | 230 | 370 | 41 | – |
| O=C1OCCCc2c(Cl)cc3[nH]ncc3c2-c2ncc3c(nc(OC[C@H]4CC[C@@H]5COCCN54)nc3c2F)N2CCOC[C@H](C2)O1 [Example 185, (26S)-18-chloro-32-fluoro-4-((6R,8aR)-hexahydro-1H-pyrrolo[2,1-c][1,4]oxazin-6-ylmethoxy)-23,25,28-trioxa-1,3,5,9,14,15-hexaazahexacyclo[24.4.1.1~6,10~.0~2,7~.0~11,19~.0~12,16~]dotriaconta-2,4,6,8,10(32),11,13,16,18-nonaen-24-one] | – | – | 6 | 5 | – | 33 | 38 | 12 | – |
| O=C1OCCCc2c(Cl)cc3[nH]ncc3c2-c2ccc3c(nc(OC[C@@]45CCCN4C[C@H](F)C5)nc3c2F)N2CCOC[C@H](C2)O1 [Example 189, (26S)-18-chloro-32-fluoro-4-(((2R,7aS)-2-fluorotetrahydro-1H-pyrrolo[1,2-a]pyrrol-7a(5H)-yl)methoxy)-23,25,28-trioxa-1,3,5,14,15-pentaazahexacyclo[24.4.1.1~6,10~.0~2,7~.0~11,19~.0~12,16~]dotriaconta-2,4,6,8,10(32),11,13,16,18-nonaen-24-one] | – | – | 3 | 2 | – | 24 | 115 | 4.9 | – |
| CN(C)CC1(COc2nc3c4cc(F)c(c(F)c4n2)-c2c(c(Cl)cc4[nH]ncc24)CCCOC(=O)O[C@@H]2COCCN3C2)CC1 [Example 305, p-(26S)-18-chloro-4-((1-((dimethylamino)methyl)cyclopropyl)methoxy)-9,32-difluoro-23,25,28-trioxa-1,3,5,14,15-pentaazahexacyclo[24.4.1.1~6,10~.0~2,7~.0~11,19~.0~12,16~]dotriaconta-2,4,6,8,10(32),11,13,16,18-nonaen-24-one] | – | – | 4 | 3 | – | 134 | 61 | 17.7 | – |
| C[C@@]12CCCCN(C1)c1nc(OC[C@@]34CCCN3C[C@H](F)C4)nc3c(F)c(ncc13)-c1c(c(Cl)cc3[nH]ncc13)CCC[C@H](F)C(=O)N2 (mixture of isomers) [Example 281, (23RS,26R)-18-chloro-23,32-difluoro-4-(((2R,7aS)-2-fluorotetrahydro-1H-pyrrolo[1,2-a]pyrrol-7a(5H)-yl)methoxy)-26-methyl-1,3,5,9,14,15,25-heptaazahexacyclo[24.4.1.1~6,10~.0~2,7~.0~11,19~.0~12,16~]dotriaconta-2,4,6,8,10(32),11,13,16,18-nonaen-24-one] | – | – | 5 | 2 | – | 90 | 104 | 7.9 | – |
| CN1CCC[C@H]1COc1nc2c3cnc(c(F)c3n1)-c1c(c(Cl)cc3[nH]ncc13)CCCOC(=O)O[C@@H]1CCCCN2C1 [Example 202, (26R)-18-chloro-32-fluoro-4-(((2S)-1-methyl-2-pyrrolidinyl)methoxy)-23,25-dioxa-1,3,5,9,14,15-hexaazahexacyclo[24.4.1.1~6,10~.0~2,7~.0~11,19~.0~12,16~]dotriaconta-2,4,6,8,10(32),11,13,16,18-nonaen-24-one] | – | – | 6 | 3 | – | 113 | 494 | 41.1 | – |
| C[C@@]12CCN(C1)c1nc(OC[C@@]34CCCN3C[C@H](F)C4)nc3c(F)c(ncc13)-c1cc(O)cc3ccc(F)c(c13)CCCC(=O)N2 [Example 10, (14R)-21,30-Difluoro-8-(((2R,7aS)-2-fluorotetrahydro-1H-pyrrolo[1,2-a]pyrrol-7a(5H)-yl)methoxy)-26-hydroxy-14-methyl-3,7,9,11,15-pentaazahexacyclo[18.7.1.1˜2,6˜.1˜11,14˜.0˜5,10˜.0˜24,28˜]triaconta-1(27),2(30),3,5,7,9,20,22,24(28),25-decaen-16-one 2,2,2-trifluoroacetate salt] | – | – | 4 | 2 | – | 157 | 574 | 84 | – |
| Fc1c2ncc3c(nc(OC[C@@]45CCCN4C[C@H](F)C5)nc13)N1CCC[C@H](C1)c1cnn(n1)CCCc1c(Cl)cc3[nH]ncc3c1-2 [Example 259] | – | – | 4 | 3 | – | 126 | 215 | 25.3 | – |
